Experimental data taken from US11685766B2, “14-3-3 targeting peptides for cancer treatment” (Creighton University, priority 2019, dated 2023).
Peptide text beside a SMILES is read from it.

Key:
[1] = target: T1, 14-3-3ε protein (Homo sapiens, UniProt P62258); test: Differential scanning fluorimetry (DSF) binding; details: 7 μM 14-3-3ε, ΔTm vs peptide concentration, Hill fit; read-out: Kd, binding affinity to 14-3-3ε protein (DSF)
T1 sequence (P62258 1-255): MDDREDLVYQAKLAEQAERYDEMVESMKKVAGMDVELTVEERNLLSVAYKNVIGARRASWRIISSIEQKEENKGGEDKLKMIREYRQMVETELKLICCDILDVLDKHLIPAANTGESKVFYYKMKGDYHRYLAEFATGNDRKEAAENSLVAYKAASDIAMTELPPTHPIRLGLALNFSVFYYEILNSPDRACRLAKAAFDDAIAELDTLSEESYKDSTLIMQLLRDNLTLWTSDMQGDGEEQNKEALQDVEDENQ
Experimental: Differential scanning fluorimetry (DSF) experiments were performed using BioRad CFX384 Real-Time qPCR attached with C1000 Touch Thermo Cycler in the FRET channel. 7 μM subunits of 14-3-3ε protein, ten molar excess of Sypro Orange and 20 mM Tris-HCl, pH 7.4 assay buffer were used in all the melting experiments. Stock solution of peptides were prepared by dissolving 1 mg of lyophilized peptides in 20 mM Tris, pH 7.4 buffer and 0.1 μM to 200 μM dilution series were prepared. Protein melting experiments were performed both in the absence and the presence of increasing concentration of peptides. 15 μL of each samples (in triplicate) were put into each well of a 384-well white PCR plate and sealed with optical adhesive sealer (BioRad MSB-1001) and any air-bubble in the solutions were removed by spinning the plate vertically with PCR plate spinner (Labnet MPS 1000) at 1000 RPM for 3 minutes. The temperature was increased from 25° C. to 95° C. at a rate of 0.7° C. per minute. Melting temperatures of each well were determined using the CFX Maestro software version 2.0 by plotting the first derivative of fluorescence signal against temperature. All the measurements were performed in triplicate and the deviations of melting temperatures (ΔTm) presented for each samples were calculated relatively to three control samples (7 μM 14-3-3ε in the absence of the peptide). Binding constant (Kd) for each peptide was calculated by plotting ΔTm against peptide concentration and data points were fitted with Hill's equation using GraphPad 9.0 software.

[2] = system: SCC12B.2 cells; type: cell-based, human; details: 5-FU alone, concentration printed as 2004, FIG. 1D
Experimental: Human skin cancer cell lines (SCC12B.2, SCC13, SRB12) were maintained in Dulbecco's modified Eagle's medium (DMEM) (Invitrogen, Carlsbad, Calif., USA) supplemented with 1% penicillin (10 000 U/ml)-streptomycin (10 000 μg/ml) (PenStrep) (Invitrogen) and 10% fetal bovine serum (Gemini Bio-Products, Sacramento, Calif., USA) at 37° C. and 5% CO2. Normal human epidermal keratinocytes (nHEK) (Thermo Scientific, Waltham, Mass., USA) isolated from neonatal foreskin were cultured in EpiLife medium (Invitrogen) supplemented with human keratinocyte growth supplement (Invitrogen) and 1% PenStrep (Invitrogen). Cells were transfected with control pcDNA or pcDNA3.1-HA-14-3-3ε (Addgene plasmid #48797; http://n2t.net/addgene:48797; RRID:Addgene_48797) using Lipofectamine/Plus reagents (Life Technologies, Carlsbad, Calif., USA) or with siRNA targeting 14-3-3ε (Dharmacon, Lafayette, Colo., USA), 14-3-3γ (Dharmacon), 14-3-3ζ, (Dharmacon), Survivin (Cell Signaling, Danvers, Mass., USA), Akt (Dharmacon) or control siRNA (Santa Cruz Biotechnology, Dallas, Tex., USA) using siQuest transfection reagents (Mirus Bio, Madison, Wis., USA) or treated with Akt inhibitor GSK690693 (Tocris Bioscience, Bristol, United Kingdom) or cell cycle inhibitor 5-Fluorouracil (5-FU) (Thermo Fisher) resuspended in DMSO.
To determine the half maximal inhibitory concentration (IC50) for ES1P2 in SCC12B.2 and nHEK cells, cells were plated in a 96-well plate at a density of 6×10^3 cells/well. Twenty-four hours after plating, cells were treated with increasing concentrations of ES1P2 (0-75 μM) in Opti MEM medium supplemented with reduced serum (Invitrogen) for 4 consecutive days. ES1P2 peptide was resuspended fresh, daily in 25 mM Tris buffer (pH 7.5). Neutral Red Cell Viability assays were performed, where absorbance was measured using a Cytation 5 multi-mode plate reader (BioTek). The experiment was repeated three separate times with 4 replicate wells per experiment to obtain an average IC50 value.
Carcinoma human cell lines (SCC12B.2 and SCC13) were maintained in Dulbecco's modified Eagle's medium (DMEM) (Invitrogen, Carlsbad, Calif., USA) supplemented with 1% penicillin (10 000 U/ml)-streptomycin (10 000 μg/ml) (PenStrep) (Invitrogen) and 10% fetal bovine serum (Gemini Bio-Products, Sacramento, Calif., USA) at 37° C. and 5% CO2. Primary normal human epidermal keratinocytes (nHEK) (Thermo Fisher Scientific, Waltham, Mass., USA) isolated from neonatal foreskin were maintained in EpiLife medium (Invitrogen) supplemented with human keratinocyte growth supplement (HKGS) and 1% PenStrep. nHEK cells were not passaged more than twice before experiments. Cells were treated with CDC25A inhibitor NSC663284 (Tocris Bioscience, Bristol, United Kingdom) suspended in DMSO, transfected with wild type CDC25A or control plasmid using Lipofectamine/Plus transfection reagents (Life Technologies, Carlsbad, Calif., USA) or transfected with siRNA targeting 14-3-3 ε or control siRNA (Santa Cruz Biotechnology, Dallas, Tex., USA) using siQuest transfection reagents (Mirus Bio, Madison, Wis., USA).
To determine the half maximal inhibitory concentration (IC50) for pS and pT in SCC12B.2 cells, cells were plated in a 96-well plate at a density of 6×10^3 cells/well. […] Neutral Red Cell Viability assays were performed, where absorbance was measured using a Cytation 5 multi-mode plate reader (BioTek). […]

SMILES | Kd [1] | SCC cells alive [2]
CC(=O)N[C@@H](CCCNC(=N)N)C(=O)N[C@H](C(=O)N[C@@H](CCCCN)C(=O)N[C@@H](CO)C(=O)N[C@@H](CCCNC(=N)N)C(=O)N[C@H](C(=O)N[C@@H](Cc1ccc(O)cc1)C(=O)N[C@@H](C)C(=O)NCC(N)=O)[C@@H](C)OP(=O)(O)O)[C@@H](C)O [Ac-Arg-Thr-Lys-Ser-Arg-Thr(PO3^2−)-Tyr-Ala-Gly-NH2] (HELM PEPTIDE1{[ac].R.T.K.S.R.[C[C@@H](OP(=O)(O)O)[C@H](N[*:1])C(=O)[*:2]].Y.A.G.[am]}$$$$V2.0) | 2.34 µM | 
CC(=O)N[C@@H](CCC(N)=O)C(=O)N[C@@H](CCCNC(=N)N)C(=O)N[C@@H](Cc1ccc(O)cc1)C(=O)N[C@@H](CC(N)=O)C(=O)N[C@@H](COP(=O)(O)O)C(=O)N[C@@H](C)C(=O)N1CCC[C@H]1C(=O)N[C@@H](C)C(=O)N[C@@H](CCCNC(=N)N)C(N)=O [Ac-Gln-Arg-Tyr-Asn-Ser-(PO3^2−)-Ala-Pro-Ala-Arg-NH2] (HELM PEPTIDE1{[ac].Q.R.Y.N.[O=C([C@H](COP(=O)(O)O)N[*:1])[*:2]].A.P.A.R.[am]}$$$$V2.0) | 9.34 µM | 
O=c1[nH]cc(F)c(=O)[nH]1 [5-FU, 5-Fluorouracil, reference compound] |  | 71.5 % alive
CC(=O)N[C@@H](CCC(N)=O)C(=O)N[C@@H](CCCNC(=N)N)C(=O)N[C@@H](Cc1ccccc1)C(=O)N[C@@H](CC(N)=O)C(=O)N[C@@H](COP(=O)(O)O)C(=O)N[C@@H](C)C(=O)N1CCC[C@H]1C(=O)N[C@@H](C)C(=O)N[C@@H](CCCNC(=N)N)C(N)=O [Ac-Gln-Arg-Phe-Asn-Ser-(PO3^2−)-Ala-Pro-Ala-Arg-NH2] (HELM PEPTIDE1{[ac].Q.R.F.N.[O=C([C@H](COP(=O)(O)O)N[*:1])[*:2]].A.P.A.R.[am]}$$$$V2.0) | 8.29 µM | 
